Where two headings read alike, the source gives them in different places.
Tests used:
Test in all cases: biochemical
MAPKAP-K3 = MAPKAP-K3 (Homo sapiens, UniProt Q16644); conditions: read-out: MAPKAP-K3 activity as percentage of control without inhibitor
Method: (§1) All assays (25.5 μl) were carried out at room temperature (21° C.) and were linear with respect to time and enzyme concentrations under the conditions used. Assays were performed for 30 minutes except assays for LCK and PKB which were performed for 15 minutes using Multidrop Micro reagent dispensers (Thermo Electron Corporation, Waltham, Mass. 02454, USA) in a 96-well format. The concentration of […] [γ-^33P] ATP (800 cpm/pmol) in the assays was one of three concentrations (5, 20 or 50 μM) in order to be at or below Km for ATP for the enzyme. Assays were initiated with MgATP and stopped by addition of 5 μl of 0.5M orthophosphoric acid. Assays were then harvested onto P81 filterplates using a unifilter harvester (PerkinElmer, Boston, Mass. 02118, USA), with a wash buffer of 50 mM orthophosphoric acid. Filterplates were then air dried overnight. 10 μl of Microscint O was added per well prior to counting for radioactivity.
(§2) The following kinases were assayed against the substrates indicated. Aurora B was assayed against the substrate peptide […] (300 μM), ERK8 and MST-2 were both assayed against MBP (0.33 mg/ml). IKKβ was assayed against the substrate peptide […] (300 μM), JNK3 was assayed against 3 μM ATF2[19-96]. MAPKAP-K3 and PKD1 were both assayed against […] (30 μM), MARK3 was assayed against CHKtide ([…]) substrate peptide (300 μM). MNK1 and MNK2 were both assayed against eIF4E protein (0.5 mg/ml). NEK7 was assayed against […] (300 μM), PIM2 was assayed against […] (300 μM), ΔPH PKBβ-S474D was assayed against Crosstide (30 μM), PLK1 was assayed against […] (300 μM). PRK2 was assayed against Long S6 peptide, […] (30 μM), RSK2 was assayed against […] (30 μM), SRC was assayed against cdc2 peptide, […], (300 μM) and SRPK1 was assayed against peptide […] (300 μM). All enzymes were diluted in 50 mM Tris/HCl pH 7.5, 0.1 mM EGTA, 1 mg/ml BSA, 0.1% β-mercaptoethanol buffer and assayed in an incubation containing 50 mM Tris/HCl pH7.5, 0.1 mM EGTA, 0.1% β-mercaptoethanol, CAMK-1 (5-20 mU) diluted in 50 mM Tris/HCl pH 7.5, 0.1 mM EGTA, 1 mg/ml BSA, 0.1% β-mercaptoethanol is assayed against substrate peptide […] in an incubation containing 50 mM Tris/HCl pH 7.5, 0.1 mM EGTA, 0.5 mM CaCl2, 0.3 μM calmodulin, 0.1% β-mereaptoethanol, 300 μM substrate peptide, 10 mM magnesium acetate and 0.05 mM [^33P-γ-ATP] (500-1000 cpm/pmole). EF2K (5-20 mU) diluted in 50 mM Hepes pH 6.6, 0.1% β-mercaptoethanol, 1 mg/ml BSA is assayed against a substrate peptide […] in an incubation containing 50 mM Hepes pH 6.6, 0.2 mM CaCl2, 0.3 μM Calmodulin, 0.05% b-mercaptoethanol, 300 μM substrate peptide, 10 mM magnesium acetate and 0.05 mM [^33P-γ-ATP] (500-1000 cpm/pmole).

EFK2 = biological target: T1, EFK2 (Homo sapiens, UniProt O00418); conditions: read-out: EFK2 activity as percentage of control without inhibitor
T1 sequence (O00418 1-725): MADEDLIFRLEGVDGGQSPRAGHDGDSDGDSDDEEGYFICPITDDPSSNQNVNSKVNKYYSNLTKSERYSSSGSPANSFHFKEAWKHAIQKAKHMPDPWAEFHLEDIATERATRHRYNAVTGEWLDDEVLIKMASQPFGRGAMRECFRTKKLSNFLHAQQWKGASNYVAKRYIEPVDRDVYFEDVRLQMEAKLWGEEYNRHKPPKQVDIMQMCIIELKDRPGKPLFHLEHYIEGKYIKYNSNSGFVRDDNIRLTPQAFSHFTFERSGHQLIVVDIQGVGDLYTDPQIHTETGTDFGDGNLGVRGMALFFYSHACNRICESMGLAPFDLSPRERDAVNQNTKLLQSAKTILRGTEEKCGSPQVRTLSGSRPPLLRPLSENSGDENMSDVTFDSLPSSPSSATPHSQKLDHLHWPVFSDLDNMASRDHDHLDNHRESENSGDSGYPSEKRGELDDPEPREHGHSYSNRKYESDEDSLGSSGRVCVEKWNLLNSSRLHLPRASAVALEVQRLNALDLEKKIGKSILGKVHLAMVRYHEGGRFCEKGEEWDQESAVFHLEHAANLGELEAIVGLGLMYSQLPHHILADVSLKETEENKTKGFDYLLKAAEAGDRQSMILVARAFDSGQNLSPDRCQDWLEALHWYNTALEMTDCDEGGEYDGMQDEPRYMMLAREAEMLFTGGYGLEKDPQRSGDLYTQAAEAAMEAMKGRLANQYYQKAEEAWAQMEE
Method: as §1, §2

IKKb = biological target: T2, IKKb (Homo sapiens, UniProt O14920); conditions: read-out: IKKb activity as percentage of control without inhibitor
T2 sequence (O14920 1-756): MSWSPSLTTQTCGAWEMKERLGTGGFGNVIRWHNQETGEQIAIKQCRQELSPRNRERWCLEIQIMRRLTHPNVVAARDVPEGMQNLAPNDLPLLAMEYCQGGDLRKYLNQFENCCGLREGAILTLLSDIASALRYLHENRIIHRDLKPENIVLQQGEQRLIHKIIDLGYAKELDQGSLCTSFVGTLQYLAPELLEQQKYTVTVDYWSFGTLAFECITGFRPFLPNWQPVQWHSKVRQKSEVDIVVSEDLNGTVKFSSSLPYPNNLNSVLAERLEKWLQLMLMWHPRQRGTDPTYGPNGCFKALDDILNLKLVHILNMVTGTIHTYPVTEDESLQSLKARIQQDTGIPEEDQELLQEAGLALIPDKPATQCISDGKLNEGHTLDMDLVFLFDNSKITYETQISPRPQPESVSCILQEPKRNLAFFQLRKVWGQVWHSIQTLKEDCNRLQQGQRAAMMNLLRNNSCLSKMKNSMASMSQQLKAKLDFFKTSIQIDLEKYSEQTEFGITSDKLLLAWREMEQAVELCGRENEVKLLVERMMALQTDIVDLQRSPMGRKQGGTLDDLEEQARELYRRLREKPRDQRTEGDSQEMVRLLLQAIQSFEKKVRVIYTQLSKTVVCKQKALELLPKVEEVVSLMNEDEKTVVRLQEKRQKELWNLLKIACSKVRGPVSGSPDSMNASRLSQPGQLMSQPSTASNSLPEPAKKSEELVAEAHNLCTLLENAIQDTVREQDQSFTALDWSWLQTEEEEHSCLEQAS
Method: as §1, §2

Chain of MAPKAP-K3 (Q16644 whole entry, species assumed): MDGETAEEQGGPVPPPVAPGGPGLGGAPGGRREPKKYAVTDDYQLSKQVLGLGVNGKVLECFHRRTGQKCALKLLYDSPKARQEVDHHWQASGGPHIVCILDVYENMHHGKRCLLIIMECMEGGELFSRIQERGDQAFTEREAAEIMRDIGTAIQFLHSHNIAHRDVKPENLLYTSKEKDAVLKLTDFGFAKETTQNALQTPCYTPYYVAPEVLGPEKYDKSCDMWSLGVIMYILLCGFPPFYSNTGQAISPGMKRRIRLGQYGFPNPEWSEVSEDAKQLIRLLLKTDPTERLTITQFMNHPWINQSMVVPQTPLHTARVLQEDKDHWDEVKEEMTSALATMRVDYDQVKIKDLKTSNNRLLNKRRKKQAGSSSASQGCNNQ

For `COc1ccc2c3c([nH]c2c1)C(C)=NCC3` [Harmaline], the remaining activity at 1 µM (MAPKAP-K3; inhibitor 1 μM) was 79%, the remaining activity at 10 µM (MAPKAP-K3; inhibitor 10 μM) was 82% and the remaining activity at 1 µM (EFK2; inhibitor 1 μM) was 106%. The remaining activity at 10 µM (EFK2; inhibitor 10 μM) was 100%, the remaining activity at 1 µM (IKKb; inhibitor 1 μM) was 78% and the remaining activity at 10 µM (IKKb; inhibitor 10 μM) was 82%.

`CC1=NCCc2c1[nH]c1cc(O)ccc21` [Harmalol] was tested, and the remaining activity at 1 µM (MAPKAP-K3; inhibitor 1 μM) was 95%, the remaining activity at 10 µM (MAPKAP-K3; inhibitor 10 μM) was 88% and the remaining activity at 1 µM (EFK2; inhibitor 1 μM) was 97%. The remaining activity at 10 µM (EFK2; inhibitor 10 μM) was 85%, the remaining activity at 1 µM (IKKb; inhibitor 1 μM) was 93% and the remaining activity at 10 µM (IKKb; inhibitor 10 μM) was 69%.

In the case of `COc1ccc2c(c1)[nH]c1c(C)nccc12` [Harmine], the remaining activity at 1 µM (MAPKAP-K3) is reported as 89%, the remaining activity at 10 µM (MAPKAP-K3) is reported as 93% and the remaining activity at 1 µM (EFK2) is reported as 102%. For the same compound, the remaining activity at 10 µM (EFK2) was 101%, the remaining activity at 1 µM (IKKb) was 97% and the remaining activity at 10 µM (IKKb) was 73%.

— patent US20100063085A1, “METHOD OF TREATING LEARNING IMPAIRMENT IN DOWN'S SYNDROME SUBJECTS” (University Court of The University of Dundee, priority 2008, published 2010)
